Usually Ki stands for the dissociation constant of the complex between target and ligand, obtained from inhibition or displacement. The low end stands for tighter binding, the high end for weaker binding.

This test deals with Tryptase beta-1 (Homo sapiens, UniProt Q15661). Kind of test: Inhibitory activity against human Tryptase beta was evaluated.
Sequence of Tryptase beta-1 (Q15661 whole entry): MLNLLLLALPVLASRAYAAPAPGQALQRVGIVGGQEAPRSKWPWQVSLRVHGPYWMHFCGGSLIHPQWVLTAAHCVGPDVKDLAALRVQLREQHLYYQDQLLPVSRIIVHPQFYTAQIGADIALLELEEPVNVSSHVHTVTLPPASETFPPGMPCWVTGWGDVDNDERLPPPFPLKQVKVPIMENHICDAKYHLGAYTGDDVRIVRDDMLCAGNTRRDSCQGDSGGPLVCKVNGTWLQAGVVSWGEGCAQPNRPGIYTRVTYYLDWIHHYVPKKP
`COC(=O)C(Cc1cccc(CN)c1)NC(=O)CCNC(=O)C[C@@H]1NC(=O)[C@@H](CC(=O)NCCC(=O)NC(Cc2cccc(CN)c2)C(=O)OC)NC1=O` (some centres not stated) displayed a Ki of 10 nM.

With `COC(=O)C(Cc1cccc(CN)c1)NC(=O)CC[C@@H]1NC(=O)[C@@H](CC(=O)NCC(=O)NC(Cc2cccc(CN)c2)C(=O)OC)NC1=O` (some centres not stated), affinity was put at a Ki of 180 nM.

In turn, `COC(=O)C(Cc1cccc(CN)c1)NC(=O)CCCNC(=O)C[C@@H]1NC(=O)[C@@H](CC(=O)NCCCC(=O)NC(Cc2cccc(CN)c2)C(=O)OC)NC1=O` (some centres not stated) showed a Ki of 350 nM.

`COC(=O)C(Cc1cccc(CN)c1)NC(=O)CCC1NC(=O)[C@@H](CCC(=O)NC(Cc2cccc(CN)c2)C(=O)OC)NC1=O` (some centres not stated) returned an inhibitory constant (Ki) of 2400 nM.

`COC(=O)[C@@H](Cc1ccc(CN)cc1)NC(C)=O` displayed a Ki of 213000 nM.

In turn, `COC(=O)C(Cc1cccc(CN)c1)NC(=O)CNC(=O)C[C@@H]1NC(=O)[C@@H](CC(=O)NCC(=O)NC(Cc2cccc(CN)c2)C(=O)OC)NC1=O` (some centres not stated) showed an inhibitory constant (Ki) of 18 nM.

In the case of `COC(=O)[C@@H](Cc1cccc(CN)c1)NC(C)=O`, the affinity corresponds to a Ki of 13700 nM.

For the origin of these results see ChEMBL document CHEMBL1135257, “Bivalent inhibition of beta-tryptase: distance scan of neighboring subunits by dibasic inhibitors” (Bioorg Med Chem Lett, 2002).
